From US20160022751A1, “NOVEL COMPOSITION FOR TREATING ALZHEIMER'S DISEASE AND IMPROVING COGNITIVE FUNCTION OF ALZHEIMER'S PATIENTS” (GANGNEUNG-WONJU NATIONAL UNIVERSITY INDUSTRY ACADEMY …, priority 2014, published 2016)

How the values were obtained:
[1] = system: ERK; assay: ERK phosphorylation in HMO6 cells (western blot); format: cell-based, human; details: Rg3 5 μg/ml, western blot (FIG. 18)
Protocol: FIG. 18 is a photograph showing a result of western blot analysis for confirming the degree of phosphorylation of ERK (extracellular-regulated kinase) and p38, according to an embodiment of the present invention. Depending on the presence of Rg3, the levels of phospho-ERK and phospho-p38 protein were investigated by immune-blotting. HMO6 cells were treated with Rg3 (5 μg/ml) after plated on 60 mm cell culture plates and western blot analysis was performed after the cells were placed in phenol red negative/sere-free DMEM medium for 1 h. The western blot analysis was carried out three times independently.
(§1) HMO6 cells were lysed in 1% RIPA buffer containing protease and phosphatase inhibitors (Roche, Mannheim, Germany) and whole-cell lysates were separated on 10% sodium dodecyl sulfate-polyacrylamide gel electrophoresis. After electrophoresis, the proteins were transferred to polyvinylidene fluoride membranes, and the membranes were blocked with 5% skim milk in Tris-buffered saline solution containing 0.1% Tween-20. The membranes were then immunoblotted with primary antibodies, anti-phospho-p38, anti-p38, anti-phospho-ERK, anti-ERK, and anti-f3-actin (Santa Cruz Biotechnology, USA), followed by incubation with horseradish peroxidase-conjugated anti-rabbit or anti-mouse secondary antibodies (Stressgen, USA). Blots were developed using an enhanced chemiluminescent solution (Thermo, USA).

[2] = system: IDE; assay: IDE protein expression in HMO6 cells (western blot, immunocytochemistry); format: cell-based, human; details: 5 μg/ml Rg3, 24 h (FIG. 19)
Protocol: FIG. 19 represents an images showing a result of western blot analysis of the expression of NEP (neprilysin) and IDE (insulin-degrading enzyme) in HMO6 cells (A); graphs representing the above result quantitatively (B and C), and fluorescence microscopic images representing immunocytochemical analyses (D and E). The expression of NEP and IDE in HMO6 cells was analyzed by western blot analysis and immunocytochemistry after treating Aβ42 (5 μM) or Rg3 (2.5 or 5 μg/ml) for 24 h to HMO6 cells in serum-free DMEM medium plated on 60 mm cell culture plates or chamber slides. The results are shown as mean±SD. * P<0.05, ** P<0.01, *** P<0.001.
as §1, with “Blots were developed using an enhanced chemiluminescent solution (Thermo, USA).” left out

[3] = system: SRA; assay: In vivo SRA mRNA expression in brain tissues (RT-PCR); details: mice administrated with Rg3 (FIG. 24A)
Protocol: Total RNA extracts from HMO6 cells or perfused brain tissue were prepared using the Trizol method (Invitrogen). cDNA was synthesized from RNA by reverse transcription of 1 μg total RNA using the Improm-II reverse transcription system (Promega, Wis., USA) and oligo dT primers in a total volume of 20 μl. PCR amplification was performed using the primers listed in Table 1 (Bioneer, Korea). qPCR reactions were run on a Rotor-Gene 6000 (Corbett Research, Sydney, Australia) using a SensiMix™ SYBR Hi-ROX Kit (Bioline, UK) in 20 μl reaction mixtures. Each real-time-PCR master mix contained 10 μl 2× enzyme master mix, 7 μl RNase free water, 1 μl of each primer (10 pM each), and 1 μl diluted template. The PCR was performed with an initial pre-incubation step for 15 min at 95° C., followed by 45 cycles of 95° C. for 15 s, annealing at 52° C. for 15 s, and extension at 72° C. for 10 s. […] Relative sample expression levels were calculated using Rotor-Gene 6000 Series Software 1.7 and were expressed relative to β-actin for mice or glyceraldehyde 3-phosphate dehydrogenase for HMO6 cells and corrected for between-run variability. Data for the experimental samples are expressed as a percentage of the internal control gene. […]

## CC(C)=CCC[C@](C)(O)[C@H]1CC[C@]2(C)[C@@H]1[C@H](O)C[C@@H]1[C@@]3(C)CC[C@H](O[C@@H]4O[C@H](CO)[C@@H](O)[C@H](O)[C@H]4O[C@@H]4O[C@H](CO)[C@@H](O)[C@H](O)[C@H]4O)C(C)(C)[C@@H]3CC[C@]12C [ginsenoside Rg3]
[1]
  phosphorylation of ERK: promoted the phosphorylation
[2]
  IDE expression in cells: distinctively expressed
[3]
  expression of SRA mRNA in brain tissues: increased
